Assay results taken from patent US20240139333A1, “2,6-DICHLOROPHENYL ESTER COMPOUNDS AND USE THEREOF” (Fusion Pharmaceuticals Inc., priority 2021, published 2024).

Assays:
[1] = Comparative active ester reactivity study with HOA nucleophile (benzhydroxamic acid); conditions: Benzhydroxamic Acid 1 eq., 22±2° C.
Description: (§1) General Experimental Protocol for Comparative Active Ester Reactivity Study with HOPO or HOA Nucleophiles
(§2) To a 4 mL scintillation vial containing Compound A-E (in respective experiments; 1 eq.) was added a stir bar followed by 150 μL of HPLC grade acetonitrile. In another 4 mL scintillation vial containing a respective nucleophile (1 eq.) was added 280 μL HPLC grade water. The solutions were combined and allowed to stir at room temperature (22±2° C.) for 4 hours. Timed aliquots at time (T)=15, 30, 60, 120 and 240 minutes were taken and analyzed by HPLC-MS using elution method 1 (Table 1).

[2] = DMSO stability study; format: physicochemical
Description: To a 4 mL scintillation vial containing Compound A-E (in respective experiments; 4 mg) was added a stir bar followed by 500 μL of anhydrous dimethyl sulfoxide and was allowed to stir at room temperature (22±2° C.) for 4 hours. Timed aliquots at time (T)=15, 30, 60, 120 and 240 minutes were taken, dissolved in water to achieve 2% DMSO composition and analyzed by HPLC-MS using elution method 1 (Table 5).

[3] = Active ester reactivity study with amino acids (N-Acetyl-L-Cysteine); conditions: N-Acetyl-L-Cysteine 5 eq., 22±2° C.
Description: (§3) General Experimental Protocol for Nucleophilic Reactivity Study with Amino Acids
(§4) To a 4 mL scintillation vial containing Compound A or C (1 eq.) was added a stir bar followed by 70 μL of HPLC grade acetonitrile. In another 4 mL scintillation vial containing a respective amino acid (1-5 eq.) was added 130 μL HPLC grade water followed by diisopropylethylamine (5 eq.). The solutions were combined and allowed to stir at room temperature (22±2° C.) for 4 hours. Timed aliquots at time (T)=15, 30, 60, 120 and 240 minutes were taken and analyzed by HPLC-MS using elution method 1 (Table 6).

[4] = Comparative active ester reactivity study with HOA nucleophile (N-hydroxy-N-methylbenzamide); conditions: N-Hydroxy-N-methylbenzamide 1 eq., 22±2° C.
Description: as §1, §2

[5] = Temperature stability study in H2O; format: physicochemical
Description: 20° C.: To a 4 mL scintillation vial containing Compound A-E (in respective experiments; 0.8 mg) was added 4 mL of HPLC grade water to create a 0.2 mg/mL solution. 2 mL of this solution was added to a 2 mL HPLC vial and placed in the auto sampler of an HPLC-MS at 20° C. Timed aliquots at time (T)=15, 30, 60, 120, 240 and 480 minutes were taken and analyzed by HPLC-MS using elution method 1 (Table 4).
50° C.: To a 4 mL scintillation vial containing Compound A-E (in respective experiments; 0.8 mg) was added a stir bar followed by 4 mL of HPLC grade water to create a 0.2 mg/mL solution. The vial was capped and allowed to stir in a 50° C. oil bath for 8 hours. Timed aliquots at time (T) =15, 30, 60, 120, 240 and 480 minutes were taken and analyzed by HPLC-MS using elution method 1 (Table 4).

[6] = Active ester reactivity study with amino acids (Z-Ser-OH); conditions: Z-Ser-OH 1 eq., 22±2° C.
Description: as §3, §4

[7] = Nucleophilic reactivity study with L-Lysine; conditions: L-Lysine 5 equiv
Description: General Experimental Protocol for Nucleophilic Reactivity Study with L-Lysine
To a 4 mL scintillation vial containing Compound A-E (in respective experiments; 1 eq.) was added a stir bar followed by 70 μL of HPLC grade acetonitrile. In another 4 mL scintillation vial containing L-Lysine monohydrochloride (5 eq.) was added 130 μL HPLC grade water followed by diisopropylethylamine (5 eq.). The solutions were combined and allowed to stir at room temperature (22±2° C.). Timed aliquots at time (T)=15, 30, 60 and 120 minutes were taken and analyzed by HPLC-MS using elution method 1 (Table 2).

## O=C(CCc1cccnc1)Oc1c(Cl)cccc1Cl [Compound A, 2,6-Dichlorophenyl-3-(pyridin-3-yl)propanoate]
[1]; 15 min
  % Active Ester Remaining: 97.05%
[1]; 30 min
  % Active Ester Remaining: 95.97%
[1]; 60 min
  % Active Ester Remaining: 92.36%
[1]; 120 min
  % Active Ester Remaining: 86.65%
[1]; 240 min
  % Active Ester Remaining: 78.07%
[2]; 15 min
  % Active Ester Remaining in DMSO at 22 ± 2° C.: 100%
[2]; 30 min
  % Active Ester Remaining in DMSO at 22 ± 2° C.: 99.95%
[2]; 60 min
  % Active Ester Remaining in DMSO at 22 ± 2° C.: 99.81%
[2]; 120 min
  % Active Ester Remaining in DMSO at 22 ± 2° C.: 99.75%
[2]; 240 min
  % Active Ester Remaining in DMSO at 22 ± 2° C.: 99.60%
[3]; 15 min
  % Active Ester Remaining: 100%
[3]; 30 min
  % Active Ester Remaining: 99.86%
[3]; 60 min
  % Active Ester Remaining: 99.84%
[3]; 120 min
  % Active Ester Remaining: 99.70%
[3]; 240 min
  % Active Ester Remaining: 82.52%
[4]; 15 min
  % Active Ester Remaining: 99.57%
[4]; 30 min
  % Active Ester Remaining: 99.24%
[4]; 60 min
  % Active Ester Remaining: 98.36%
[4]; 120 min
  % Active Ester Remaining: 96.11%
[4]; 240 min
  % Active Ester Remaining: 92.22%
[5]; 20° C., 15 min
  % Remaining: 100%
[5]; 20° C., 30 min
  % Remaining: 100%
[5]; 20° C., 60 min
  % Remaining: 100%
[5]; 20° C., 120 min
  % Remaining: 100%
[5]; 20° C., 240 min
  % Remaining: 100%
[5]; 20° C., 480 min
  % Remaining: 100%
[5]; 50° C., 15 min
  % Remaining: 96.12%
[5]; 50° C., 30 min
  % Remaining: 92.86%
[5]; 50° C., 60 min
  % Remaining: 88.94%
[5]; 50° C., 120 min
  % Remaining: 84.24%
[5]; 50° C., 240 min
  % Remaining: 82.50%
[5]; 50° C., 480 min
  % Remaining: 81.87%
[6]; 15 min
  % Active Ester Remaining: 97.56%
[6]; 30 min
  % Active Ester Remaining: 97.14%
[6]; 60 min
  % Active Ester Remaining: 96.30%
[6]; 120 min
  % Active Ester Remaining: 93.35%
[6]; 240 min
  % Active Ester Remaining: 91.55%
[7]; 15 min, 22±2° C.
  % Active Ester Remaining: 60.44%
[7]; 30 min, 22±2° C.
  % Active Ester Remaining: 26.31%
[7]; 60 min, 22±2° C.
  % Active Ester Remaining: 0.98%
[7]; 120 min, 22±2° C.
  % Active Ester Remaining: 0%
[7]; DMAP 10 mol % added, 15 min
  % Active Ester Remaining: 0.86%
[7]; DMAP 10 mol % added, 30 min
  % Active Ester Remaining: 0%

## O=C(CCc1cccnc1)Oc1c(F)c(F)cc(F)c1F [Compound C, 2,3,5,6-Tetrafluorophenyl-3-(pyridin-3-yl)propanoate]
[1]; 15 min
  % Active Ester Remaining: 58.86%
[1]; 30 min
  % Active Ester Remaining: 45.60%
[1]; 60 min
  % Active Ester Remaining: 32.39%
[1]; 120 min
  % Active Ester Remaining: 18.88%
[1]; 240 min
  % Active Ester Remaining: 9.26%
[2]; 15 min
  % Active Ester Remaining in DMSO at 22 ± 2° C.: 96.55%
[2]; 30 min
  % Active Ester Remaining in DMSO at 22 ± 2° C.: 94.71%
[2]; 60 min
  % Active Ester Remaining in DMSO at 22 ± 2° C.: 93.91%
[2]; 120 min
  % Active Ester Remaining in DMSO at 22 ± 2° C.: 92.60%
[2]; 240 min
  % Active Ester Remaining in DMSO at 22 ± 2° C.: 88.57%
[3]; 15 min
  % Active Ester Remaining: 95.12%
[3]; 30 min
  % Active Ester Remaining: 91.95%
[3]; 60 min
  % Active Ester Remaining: 85.25%
[3]; 120 min
  % Active Ester Remaining: 56.62%
[3]; 240 min
  % Active Ester Remaining: 0%
[4]; 15 min
  % Active Ester Remaining: 81.12%
[4]; 30 min
  % Active Ester Remaining: 72.43%
[4]; 60 min
  % Active Ester Remaining: 61.68%
[4]; 120 min
  % Active Ester Remaining: 50.09%
[4]; 240 min
  % Active Ester Remaining: 37.80%
[5]; 20° C., 15 min
  % Remaining: 95.77%
[5]; 20° C., 30 min
  % Remaining: 91.82%
[5]; 20° C., 60 min
  % Remaining: 87.38%
[5]; 20° C., 120 min
  % Remaining: 81.04%
[5]; 20° C., 240 min
  % Remaining: 70.85%
[5]; 20° C., 480 min
  % Remaining: 56.62%
[5]; 50° C., 15 min
  % Remaining: 79.21%
[5]; 50° C., 30 min
  % Remaining: 74.51%
[5]; 50° C., 60 min
  % Remaining: 65.73%
[5]; 50° C., 120 min
  % Remaining: 42.50%
[5]; 50° C., 240 min
  % Remaining: 6.78%
[5]; 50° C., 480 min
  % Remaining: 2.35%
[6]; 15 min
  % Active Ester Remaining: 41.75%
[6]; 30 min
  % Active Ester Remaining: 28.90%
[6]; 60 min
  % Active Ester Remaining: 10.96%
[6]; 120 min
  % Active Ester Remaining: 2.89%
[6]; 240 min
  % Active Ester Remaining: 0.12%
[7]; 15 min, 22±2° C.
  % Active Ester Remaining: 0%
